Assays:
BRD4(2) = target: T1, BRD4(2) (Homo sapiens, UniProt O60885); assay: BromoScan profiling (DiscoverX); type: binding; details: read-out: Percent Control BRD4(2)
T1 construct: BRD4(2); purchased Eurofins DiscoverX (BROMOscan)

BRD2(2) = target: T2, BRD2(2) (Homo sapiens, UniProt P25440); assay: BromoScan profiling (DiscoverX); type: binding; details: read-out: Percent Control BRD2(2)
T2 construct: BRD2(2); purchased Eurofins DiscoverX (BROMOscan)

TAF1L(2) = target: T3, TAF1L(2) (Homo sapiens, UniProt Q8IZX4); assay: BromoScan profiling (DiscoverX); type: binding; details: read-out: Percent Control TAF1L(2)
T3 construct: TAF1L(2); purchased Eurofins DiscoverX (BROMOscan)
T3 sequence (Q8IZX4 1517-1654 limits assumed): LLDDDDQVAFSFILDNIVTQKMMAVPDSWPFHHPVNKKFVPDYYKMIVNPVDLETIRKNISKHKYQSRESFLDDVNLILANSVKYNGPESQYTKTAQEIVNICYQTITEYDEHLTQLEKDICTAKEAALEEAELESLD

ATAD2B = target: T4, ATAD2B (Homo sapiens, UniProt Q9ULI0); assay: BromoScan profiling (DiscoverX); type: binding; details: read-out: Percent Control ATAD2B
T4 construct: purchased Eurofins DiscoverX (BROMOscan)

BRD2(1) = target: T5, BRD2(1) (Homo sapiens, UniProt P25440); assay: BromoScan profiling (DiscoverX); type: binding; details: read-out: Percent Control BRD2(1)
T5 construct: BRD2(1); purchased Eurofins DiscoverX (BROMOscan)
T5 sequence (P25440 71-194 limits assumed): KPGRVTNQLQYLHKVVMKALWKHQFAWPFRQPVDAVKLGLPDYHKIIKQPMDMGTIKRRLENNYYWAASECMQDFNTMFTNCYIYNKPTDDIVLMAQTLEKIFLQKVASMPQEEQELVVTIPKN

GCN5L2 = target: T6, GCN5L2 (Homo sapiens, UniProt Q92830); assay: BromoScan profiling (DiscoverX); type: binding; details: read-out: Percent Control GCN5L2
T6 construct: purchased Eurofins DiscoverX (BROMOscan)
T6 sequence (Q92830 whole entry): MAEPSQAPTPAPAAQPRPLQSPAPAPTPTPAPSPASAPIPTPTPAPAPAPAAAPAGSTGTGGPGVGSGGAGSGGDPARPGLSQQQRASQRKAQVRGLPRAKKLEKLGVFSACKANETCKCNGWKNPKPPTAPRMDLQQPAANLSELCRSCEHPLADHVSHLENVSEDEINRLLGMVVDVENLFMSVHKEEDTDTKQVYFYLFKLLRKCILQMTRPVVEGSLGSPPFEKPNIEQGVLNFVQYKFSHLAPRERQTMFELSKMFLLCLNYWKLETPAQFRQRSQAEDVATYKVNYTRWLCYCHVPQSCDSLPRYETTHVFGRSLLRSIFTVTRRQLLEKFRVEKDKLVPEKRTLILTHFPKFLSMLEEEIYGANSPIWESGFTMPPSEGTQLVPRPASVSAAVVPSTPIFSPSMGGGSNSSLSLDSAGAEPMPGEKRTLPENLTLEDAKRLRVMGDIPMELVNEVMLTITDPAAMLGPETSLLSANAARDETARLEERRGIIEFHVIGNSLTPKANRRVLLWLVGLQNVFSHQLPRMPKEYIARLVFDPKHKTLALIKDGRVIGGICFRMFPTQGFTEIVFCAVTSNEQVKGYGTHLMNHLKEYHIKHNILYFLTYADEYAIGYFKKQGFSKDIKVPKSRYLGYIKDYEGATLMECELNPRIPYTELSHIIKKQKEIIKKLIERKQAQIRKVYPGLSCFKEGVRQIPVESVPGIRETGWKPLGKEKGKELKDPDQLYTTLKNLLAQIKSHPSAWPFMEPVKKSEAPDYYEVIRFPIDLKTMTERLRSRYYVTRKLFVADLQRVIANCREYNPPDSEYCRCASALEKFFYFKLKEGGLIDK

SMARCA2 = target: T7, SMARCA2 (Homo sapiens, UniProt P51531); assay: BromoScan profiling (DiscoverX); type: binding; details: read-out: Percent Control SMARCA2
T7 construct: purchased Eurofins DiscoverX (BROMOscan)
T7 sequence (P51531 whole entry): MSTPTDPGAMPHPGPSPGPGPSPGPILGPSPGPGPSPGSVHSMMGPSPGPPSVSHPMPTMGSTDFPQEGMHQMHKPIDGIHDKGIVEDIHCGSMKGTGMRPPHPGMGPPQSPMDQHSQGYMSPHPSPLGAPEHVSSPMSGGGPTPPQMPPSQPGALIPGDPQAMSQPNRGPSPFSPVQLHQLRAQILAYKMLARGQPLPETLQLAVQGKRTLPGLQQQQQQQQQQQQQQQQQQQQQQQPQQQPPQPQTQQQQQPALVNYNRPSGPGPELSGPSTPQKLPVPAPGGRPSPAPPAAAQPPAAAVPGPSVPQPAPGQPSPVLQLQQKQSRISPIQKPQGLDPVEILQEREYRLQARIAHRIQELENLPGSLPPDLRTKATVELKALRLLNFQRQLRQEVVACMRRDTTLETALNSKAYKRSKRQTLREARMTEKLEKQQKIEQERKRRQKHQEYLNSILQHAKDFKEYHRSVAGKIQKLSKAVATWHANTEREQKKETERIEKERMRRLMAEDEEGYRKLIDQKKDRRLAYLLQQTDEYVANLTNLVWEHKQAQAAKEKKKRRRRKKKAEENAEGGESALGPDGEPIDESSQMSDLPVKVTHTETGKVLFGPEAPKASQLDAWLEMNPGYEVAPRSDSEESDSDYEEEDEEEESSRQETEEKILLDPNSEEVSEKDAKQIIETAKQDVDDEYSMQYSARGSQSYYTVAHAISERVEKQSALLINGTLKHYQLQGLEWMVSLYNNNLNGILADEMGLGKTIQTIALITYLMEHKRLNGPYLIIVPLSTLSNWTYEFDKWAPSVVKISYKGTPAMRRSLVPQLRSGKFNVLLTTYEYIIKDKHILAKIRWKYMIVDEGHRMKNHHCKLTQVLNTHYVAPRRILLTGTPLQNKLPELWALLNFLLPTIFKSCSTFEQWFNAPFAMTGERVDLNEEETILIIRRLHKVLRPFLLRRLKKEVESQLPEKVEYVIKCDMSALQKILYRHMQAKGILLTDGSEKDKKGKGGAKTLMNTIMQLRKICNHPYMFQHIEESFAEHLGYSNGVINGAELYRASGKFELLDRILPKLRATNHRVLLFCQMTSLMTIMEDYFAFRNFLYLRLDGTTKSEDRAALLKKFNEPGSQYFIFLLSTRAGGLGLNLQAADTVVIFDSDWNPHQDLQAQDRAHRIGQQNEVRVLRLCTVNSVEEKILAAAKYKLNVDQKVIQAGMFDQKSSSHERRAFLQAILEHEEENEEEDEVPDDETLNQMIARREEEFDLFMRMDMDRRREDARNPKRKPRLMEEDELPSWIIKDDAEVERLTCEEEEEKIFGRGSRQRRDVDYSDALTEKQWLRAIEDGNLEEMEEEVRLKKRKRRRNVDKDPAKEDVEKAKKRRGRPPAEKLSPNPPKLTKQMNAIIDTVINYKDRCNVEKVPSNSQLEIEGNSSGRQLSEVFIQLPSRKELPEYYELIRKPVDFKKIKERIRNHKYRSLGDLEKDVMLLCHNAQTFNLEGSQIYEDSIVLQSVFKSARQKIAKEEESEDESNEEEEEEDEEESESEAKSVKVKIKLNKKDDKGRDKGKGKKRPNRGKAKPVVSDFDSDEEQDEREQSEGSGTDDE

BRDT(2) = target: T8, BRDT(2) (Homo sapiens, UniProt Q58F21); assay: BromoScan profiling (DiscoverX); type: binding; details: read-out: Percent Control BRDT(2)
T8 construct: BRDT(2); purchased Eurofins DiscoverX (BROMOscan)

SMARCA4 = target: T9, SMARCA4 (Homo sapiens, UniProt P51532); assay: BromoScan profiling (DiscoverX); type: binding; details: read-out: Percent Control SMARCA4
T9 construct: purchased Eurofins DiscoverX (BROMOscan)

[1] = tested on: c-MYC in HDMB03 (HDMBO3) cells; assay: Western blotting for c-MYC after 6 h treatment; type: cell-based; details: CCS1477 39 nM, A485 400 nM, JQ1 100 nM
Excerpt: Line width indicates strength of known protein-protein interactions. Red indicates proteins involved in control of mRNA transcription/cell cycle, blue indicates proteins involved in RNA metabolism.
Western blotting protocols were as previously described[16],[69]. Briefly, cells growing in culture were lysed for whole-cell lysates using RIPA buffer, or for affinity pulldown using IP-lysis buffer (Pierce Biotechnology) per the manufacturer’s protocol. […] Equal amounts of protein were resolved by Western blotting using 4% to 12% Bis–Tris NuPAGE gels (Thermo Fisher Scientific) prior to transfer and immunoblotting using primary antibodies to EP300 (1:1000, Abcam ab10485), BRD4 (1:1000, Epicypher 13-2003), c-MYC (1:1000, Cell Signaling Technology #5605) or β-Actin (1:1000, Cell Signaling Technology #4967). Secondary antibodies were horseradish peroxidase–conjugated anti-rabbit or anti-mouse (1:5000, Santa Cruz Biotechnology, sc-2357, sc-358914), incubated prior to exposure to enhanced chemiluminescence reagents (GE Amersham). Densitometry was performed using Image Lab v6.1 (BioRad).

PCAF = target: T10, PCAF (Homo sapiens, UniProt Q92831); assay: BromoScan profiling (DiscoverX); type: binding; details: read-out: Percent Control PCAF
T10 construct: purchased Eurofins DiscoverX (BROMOscan)

BAZ2A = target: T11, BAZ2A (Homo sapiens, UniProt Q9UIF9); assay: BromoScan profiling (DiscoverX); type: binding; details: read-out: Percent Control BAZ2A
T11 construct: purchased Eurofins DiscoverX (BROMOscan)
T11 sequence (Q9UIF9 whole entry): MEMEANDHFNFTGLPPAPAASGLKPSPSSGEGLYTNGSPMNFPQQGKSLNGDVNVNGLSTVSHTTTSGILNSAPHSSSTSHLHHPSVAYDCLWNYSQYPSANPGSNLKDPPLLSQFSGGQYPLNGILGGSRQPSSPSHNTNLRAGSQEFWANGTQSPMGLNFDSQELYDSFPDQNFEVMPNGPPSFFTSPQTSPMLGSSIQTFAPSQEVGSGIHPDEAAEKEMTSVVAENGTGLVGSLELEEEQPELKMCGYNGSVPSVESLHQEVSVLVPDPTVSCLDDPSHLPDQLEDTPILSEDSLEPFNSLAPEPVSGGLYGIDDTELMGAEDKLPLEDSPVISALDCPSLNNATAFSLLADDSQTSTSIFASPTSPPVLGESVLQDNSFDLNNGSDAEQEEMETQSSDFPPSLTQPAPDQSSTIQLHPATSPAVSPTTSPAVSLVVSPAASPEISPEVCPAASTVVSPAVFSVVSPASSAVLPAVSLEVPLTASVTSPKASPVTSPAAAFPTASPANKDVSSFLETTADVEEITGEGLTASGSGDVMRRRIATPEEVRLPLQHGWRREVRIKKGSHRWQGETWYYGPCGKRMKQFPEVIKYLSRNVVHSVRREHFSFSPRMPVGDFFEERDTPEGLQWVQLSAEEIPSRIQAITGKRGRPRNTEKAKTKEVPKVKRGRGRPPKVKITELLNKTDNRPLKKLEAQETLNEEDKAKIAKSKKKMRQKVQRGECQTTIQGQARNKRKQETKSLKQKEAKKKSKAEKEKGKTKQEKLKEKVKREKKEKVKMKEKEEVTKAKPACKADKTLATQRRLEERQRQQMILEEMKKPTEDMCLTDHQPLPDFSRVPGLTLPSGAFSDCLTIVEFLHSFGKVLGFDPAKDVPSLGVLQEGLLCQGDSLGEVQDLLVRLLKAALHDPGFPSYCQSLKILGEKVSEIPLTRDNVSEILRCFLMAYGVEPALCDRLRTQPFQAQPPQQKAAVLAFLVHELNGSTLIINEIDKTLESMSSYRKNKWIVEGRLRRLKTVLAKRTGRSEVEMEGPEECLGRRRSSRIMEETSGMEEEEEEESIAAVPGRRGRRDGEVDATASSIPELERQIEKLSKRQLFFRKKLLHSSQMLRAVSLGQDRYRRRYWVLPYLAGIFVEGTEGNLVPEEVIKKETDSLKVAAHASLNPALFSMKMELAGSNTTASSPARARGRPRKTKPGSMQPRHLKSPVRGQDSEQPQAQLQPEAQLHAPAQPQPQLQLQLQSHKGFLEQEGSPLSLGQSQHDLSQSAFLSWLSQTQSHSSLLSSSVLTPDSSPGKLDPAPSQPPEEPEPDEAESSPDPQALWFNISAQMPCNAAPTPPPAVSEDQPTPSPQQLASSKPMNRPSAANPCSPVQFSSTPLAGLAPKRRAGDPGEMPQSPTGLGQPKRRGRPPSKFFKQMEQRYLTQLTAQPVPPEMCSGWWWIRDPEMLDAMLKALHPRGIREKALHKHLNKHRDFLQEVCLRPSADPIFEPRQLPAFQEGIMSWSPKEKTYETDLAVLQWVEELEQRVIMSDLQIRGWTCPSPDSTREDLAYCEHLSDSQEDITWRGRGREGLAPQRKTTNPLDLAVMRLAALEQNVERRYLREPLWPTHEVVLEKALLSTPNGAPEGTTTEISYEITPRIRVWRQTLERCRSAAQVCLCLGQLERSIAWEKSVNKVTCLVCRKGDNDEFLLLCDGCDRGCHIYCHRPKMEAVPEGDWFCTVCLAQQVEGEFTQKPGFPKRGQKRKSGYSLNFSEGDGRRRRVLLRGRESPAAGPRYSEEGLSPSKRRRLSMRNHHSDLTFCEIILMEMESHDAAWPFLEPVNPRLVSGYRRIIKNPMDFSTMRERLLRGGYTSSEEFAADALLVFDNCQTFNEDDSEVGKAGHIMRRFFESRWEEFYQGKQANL

WDR9(2) = target: T12, WDR9(2) (Homo sapiens, UniProt Q9NSI6); assay: BromoScan profiling (DiscoverX); type: binding; details: read-out: Percent Control WDR9(2)
T12 construct: WDR9(2); purchased Eurofins DiscoverX (BROMOscan)
T12 sequence (Q9NSI6 1310-1430 limits assumed): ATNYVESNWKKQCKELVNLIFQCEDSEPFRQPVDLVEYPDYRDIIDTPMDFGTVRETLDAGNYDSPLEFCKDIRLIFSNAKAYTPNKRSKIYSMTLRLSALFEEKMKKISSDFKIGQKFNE

BRD4-BD1 (BRD4-1) = target: T13, BRD4-BD1 (BRD4-1) (Homo sapiens, UniProt O60885); assay: Isothermal titration calorimetry (ITC); type: binding; details: single ITC experiment, data fit ± SEM
T13 construct: BRD4-BD1 (residues 44-168); 6xHis (cleaved yes); host or cells: E. coli BL21 (DE3) RIL
Method: At OD600 of 0.6, the culture was cooled down to 18 °C and induced with 0.1 mM IPTG. After 18 h growth, the culture was harvested by centrifugation at 6000 × g for 25 min and stored at -80 °C. Harvested cell pellets were re-suspended in 50 mM Na/K phosphate buffer (pH 7.4) containing 100 mM NaCl, 40 mM imidazole, 0.01% w/v lysozyme and 0.01% v/v Triton X-100 at 4 °C for 1 h, subjected to sonication and the lysate was clarified by centrifugation (30,000 × g for 45 min at 4 °C). Proteins were purified by FPLC at 4 °C using columns and chromatography materials from GE Healthcare. […] Proteins were purified to homogeneity by size exclusion chromatography using Superdex 75 equilibrated with elution buffer (50 mM HEPES pH 7.5, 100 mM NaCl, 2 mM DTT). All BRDs eluted as monomeric protein and were of crystallization grade quality (>95% purity as judged by SDS-PAGE). Pool fractions were combined, concentrated to 10–12 mg/ml, and aliquots were flash-frozen in liquid N2 and stored at −80 °C.
All experiments were conducted using an PEAQ-ITC calorimeter (Malvern Scientific). BRDs were buffer exchanged using PD10 columns (GE life sciences) into 50 mM HEPES pH7.5 and 100 mM NaCl (ITC buffer) before the experiment and concentrated to ∼10 mg/mL. Experiments were carried out in ITC buffer while stirring at 750 rpm through reverse titration. The microsyringe (40 μL load volume) was loaded with the protein sample (250–600 μM protein in ITC buffer) and inserted into the calorimetric cell (0.2 mL cell volume) consisting of compound (20–60 μM in ITC buffer). All titrations were conducted using an initial control injection of 0.2 μL followed by 13 identical injections (~3 μL per injection) with a duration of 2 s (per injection) and a spacing of 150 s between injections. The ratio of protein/compound was optimized to ensure complete saturation of the titrant before the final injection to ensure proper baseline determination. Data were corrected for dilution and analyzed using the MicroCal Origin software to determine the enthalpies of binding (ΔH) and binding constants as described. Thermodynamic parameters were calculated using the basic equation of thermodynamics (ΔG = ΔH − TΔS = −RTlnKB) where ΔG, ΔH and ΔS are the changes in free energy, enthalpy and entropy of binding, respectively. A single binding site model was used for all ligand-protein interactions.

BRD7 = target: T14, BRD7 (Homo sapiens, UniProt Q9NPI1); assay: BromoScan profiling (DiscoverX); type: binding; details: read-out: Percent Control BRD7
T14 construct: purchased Eurofins DiscoverX (BROMOscan)

T2 sequence (P25440 348-455 limits assumed): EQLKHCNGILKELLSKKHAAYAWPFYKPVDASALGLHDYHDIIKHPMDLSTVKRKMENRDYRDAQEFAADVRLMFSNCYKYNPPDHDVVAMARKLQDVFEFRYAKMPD

CO[C@H]1CC[C@H](n2c([C@@H]3CCCC(=O)N3c3ccc(F)c(F)c3)nc3cc(-c4c(C)noc4C)ccc32)CC1 [CCS1477] showed a remaining binding at 1 µM (BRD4(2)) of 75%, a remaining binding at 1 µM (BRD2(2)) of 57% and a remaining binding at 1 µM (TAF1L(2)) of 80%. For the same molecule, the remaining binding at 1 µM (ATAD2B) was 79%, the remaining binding at 1 µM (BRD2(1)) was 3.5% and the remaining binding at 1 µM (GCN5L2) was 100%. It also gave a remaining binding at 1 µM (SMARCA2) of 50%, a remaining binding at 1 µM (BRDT(2)) of 76% and a remaining binding at 1 µM (SMARCA4) of 61%. The “MYC gene expression and protein levels” value [1] was “loss of MYC gene expression and protein levels”, the remaining binding at 1 µM (PCAF) was 88% and the remaining binding at 1 µM (BAZ2A) was 79%. For the same molecule, the remaining binding at 1 µM (WDR9(2)) was 14%, the Kd (BRD4-BD1 (BRD4-1)) was 403 ± 137 nM and the remaining binding at 1 µM (BRD7) was 64%.

Reference: article PMC11045757, “Group 3 medulloblastoma transcriptional networks collapse under domain specific EP300/CBP inhibition” (Nature Communications, 2024)
